From publication PMC9525273 (Nature Communications, 2022) come the findings set out here.

Where “and” joins values, the source holds several entries; their conditions need not be identical. Identical values can stand only once. Like-named read-outs stand apart in the source and are kept apart here.

For assay [1], the system named is HCR2 parasites (highly cipargamin-resistant clone 2). Put plainly: P. falciparum proliferation assay (72 h, fluorescent DNA-intercalating dye). The class given is cell-based, Plasmodium falciparum. How it is done:
For experiments with all other parasites, the effects of compounds of interest on parasite proliferation was measured in 96-well plates containing serial dilutions of the compounds in culture medium, with a fluorescent DNA-intercalating dye used to detect surviving parasites. The assays were initiated with erythrocytes infected with predominantly ring-stage parasites, and the starting parasitaemia and haematocrit were both 1%.

Assay [2] relates to NF54^WT parasites. As to the kind of experiment: microbe, parasite or virus in culture. It is filed as cell-based, Plasmodium falciparum. How it is done:
For the NF54-based lines and Dd2-B2-PfATP4^G358S and its parent, assays were initiated with cultures containing predominantly ring-stage parasites with a parasitaemia of 0.3% and a haematocrit of 1%. All assays using NF54 were performed in culture media containing 10% O + human serum. The duration of the assays was 72 h and the concentration of DMSO was <0.5% (v/v). Serial dilutions of the test compounds were performed using a Tecan D300e digital dispenser, with parasite cultures added manually. Parasite survival was assessed by flow cytometry on an Intellicyt iQue3 (Essen Bioscience), with 1× SYBR Green I (Invitrogen) and 200 nM MitoTracker Deep Red FM (Invitrogen) used to stain the nucleus and the mitochondria in live parasites, respectively. The gating strategy used to quantify parasite survival, performed using FlowJo version 10 (FlowJo LLC.), is illustrated in Supplementary Fig. 9. IC50 and IC90 values were calculated by linear interpolation of the dose-response data.

The target in assay [3] is T1, PfATP4^WT (membranes from Dd2-Polδ parasites) (Plasmodium falciparum, UniProt A0A143ZZK9).
T1 sequence (A0A143ZZK9 1-1264): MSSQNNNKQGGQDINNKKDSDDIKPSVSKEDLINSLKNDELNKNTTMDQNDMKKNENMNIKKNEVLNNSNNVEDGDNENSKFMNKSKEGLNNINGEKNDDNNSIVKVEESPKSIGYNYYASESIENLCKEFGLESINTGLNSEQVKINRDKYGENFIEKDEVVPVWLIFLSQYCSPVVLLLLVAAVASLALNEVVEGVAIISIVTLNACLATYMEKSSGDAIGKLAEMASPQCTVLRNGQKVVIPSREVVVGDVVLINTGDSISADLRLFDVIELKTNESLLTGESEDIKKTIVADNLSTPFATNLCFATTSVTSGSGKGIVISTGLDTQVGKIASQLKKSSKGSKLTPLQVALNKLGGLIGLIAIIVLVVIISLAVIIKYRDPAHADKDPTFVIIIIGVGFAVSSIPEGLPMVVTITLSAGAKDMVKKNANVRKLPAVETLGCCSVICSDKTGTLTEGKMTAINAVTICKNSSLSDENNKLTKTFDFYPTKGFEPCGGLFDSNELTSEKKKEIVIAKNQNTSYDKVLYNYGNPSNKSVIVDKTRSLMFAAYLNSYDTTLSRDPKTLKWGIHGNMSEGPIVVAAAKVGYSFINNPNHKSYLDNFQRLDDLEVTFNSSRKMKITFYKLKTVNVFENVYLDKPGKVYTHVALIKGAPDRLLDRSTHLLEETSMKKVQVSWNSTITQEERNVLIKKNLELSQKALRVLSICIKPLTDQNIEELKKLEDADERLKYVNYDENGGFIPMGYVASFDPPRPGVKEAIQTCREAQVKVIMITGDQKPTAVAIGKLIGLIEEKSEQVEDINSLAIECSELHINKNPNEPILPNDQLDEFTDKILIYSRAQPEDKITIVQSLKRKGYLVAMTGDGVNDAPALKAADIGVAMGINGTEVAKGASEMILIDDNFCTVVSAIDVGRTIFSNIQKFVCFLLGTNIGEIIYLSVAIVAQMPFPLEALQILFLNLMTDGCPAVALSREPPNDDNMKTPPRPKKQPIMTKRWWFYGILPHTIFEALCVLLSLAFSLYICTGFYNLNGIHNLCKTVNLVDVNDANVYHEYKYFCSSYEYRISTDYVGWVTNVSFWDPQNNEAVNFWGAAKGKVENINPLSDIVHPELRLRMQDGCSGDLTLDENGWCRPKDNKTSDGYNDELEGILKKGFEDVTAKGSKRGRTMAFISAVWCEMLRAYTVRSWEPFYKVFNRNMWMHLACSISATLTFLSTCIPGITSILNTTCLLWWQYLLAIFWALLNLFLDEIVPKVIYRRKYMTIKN
Put plainly: Membrane ATPase assay, ATP4-associated (Na+-dependent) ATPase activity. The class given is biochemical. As to conditions: Dd2-Polδ. How it is done:
Membranes from isolated P. falciparum or extracellular T. gondii parasites were prepared by lysing parasites in ice-cold deionized water containing a 1:500 dilution of Protease Inhibitor Cocktail Set III (Merck Millipore), then washing the membrane preparation three times in ice-cold deionized water (with protease inhibitors present for the first two washes)[15]. Protein concentrations in the membrane preparations were measured using a Bradford assay. The PiColorLock Gold Phosphate Detection System (Innova Biosciences) was used to measure the production of Pi from hydrolysis of ATP[15]. Membrane preparations were diluted in either a high Na^+ solution (yielding final conditions in the reactions of 150 mM NaCl, 20 mM KCl, 2 mM MgCl2, 50 mM Tris, pH 7.2) or a Na^+-free solution (yielding final conditions of 150 mM choline chloride, 20 mM KCl, 2 mM MgCl2, 50 mM Tris, pH 7.2) to achieve a total protein concentration of 50 μg/mL. […] The reactions were performed at 37 °C, and were initiated by the addition of 1 mM ATP (Na2ATP۰3H2O; MP Biomedicals) and terminated 10 min later by adding 100 μL of reaction mixture (in duplicate) to 25 μL “Gold mix” in a 96-well plate. “Stabiliser” was added 3 min later, and the plates incubated at room temperature in the dark for 60 min before measuring absorbance at 635 nm. Background values (averaged from wells containing all components, but to which ATP was not added until after the membrane was exposed to Gold mix) were subtracted from the data. For each treatment, the ATPase activity associated with the (Na^+-dependent) PfATP4 and TgATP4 proteins was calculated by subtracting data obtained in the low Na^+ condition (containing only the 2 mM Na^+ introduced on addition of 1 mM Na2ATP) from that obtained in the high Na^+ condition.

The term IC50 denotes the point on the concentration scale where inhibition reaches its midpoint. A word on the IC90: it is the concentration at which the effect reaches the 90% level.

Turning to `C[C@H]1[C@@H](O)O[C@@H]2O[C@@]3(C)CC[C@H]4[C@H](C)CC[C@@H]1[C@@]24OO3` [Dihydroartemisinin], the IC50 in assay [1] (Plasmodium falciparum, read-out: Dihydroartemisinin IC50 values, HCR2, MEAN) is 1.51 nM; in assay [1] (Plasmodium falciparum, read-out: Dihydroartemisinin IC50 values, HCR2, single experiments), 1.46 nM; in assay [1] (read-out: Dihydroartemisinin IC50 values, HCR2, single experiments), 1.62 nM and 1.77 nM and 1.19 nM; in assay [2] (Plasmodium falciparum, NF54, NF54WT, 10% human serum, read-out: IC50 ± SEM) it was 0.8 ± 0.1 nM; in assay [2] (Plasmodium falciparum, NF54, read-out: Dihydroartemisinin IC50 values, NF54WT, MEAN) it was 0.84 nM; in assay [2] (read-out: Dihydroartemisinin IC50 values, NF54WT, single experiments), 0.78 nM and 0.71 nM and 0.86 nM. Further, the IC90 in assay [2] (NF54WT parasites, individual experiments, read-out: IC90 values) was 1.85 nM and 1.87 nM and 2.79 nM; in assay [2] (Plasmodium falciparum, NF54, NF54WT parasites, individual experiments, read-out: IC90 values) it was 2.83 nM; in assay [2] (Plasmodium falciparum, NF54, NF54WT parasites, mean of the experiments, read-out: IC90 values, MEAN), 2.3 nM. Further, the “FC (IC50)” value in assay [2] (NF54WT, reference line) is 1.0 fold. For the same compound, in assay [2] (NF54WT, reference line), the “FC (IC90)” value was determined as 1.0 fold.
As for `N#Cc1cc(NC(=O)[C@H]2c3ccccc3C(=O)N(CC(F)(F)F)[C@@H]2c2cccnc2)ccc1F` [(+)SJ733], the “PfATP4-associated ATPase activity (% of control)” value in assay [3] ([(+)SJ733] 0.122 nM, MEAN) was 74.2 % of control; in assay [3] ([(+)SJ733] 0.122 nM, single experiments, 0.000122 µM) it was 57.4 % of control and 86.4 % of control and 78.7 % of control; in assay [3] ([(+)SJ733] 0.244 nM, MEAN), 71.3 % of control; in assay [3] ([(+)SJ733] 0.244 nM, single experiments, 0.000244 µM), 51.9 % of control and 74.9 % of control and 87.1 % of control; in assay [3] ([(+)SJ733] 0.5 nM, MEAN), 85.1 % of control; in assay [3] ([(+)SJ733] 1.0 nM, MEAN) it was 59.1 % of control. Moreover, the “PfATP4-associated ATPase activity (% of control)” value in assay [3] ([(+)SJ733] 2.0 nM, MEAN) is 64.2 % of control; in assay [3] ([(+)SJ733] 3.9 nM, MEAN), 46.7 % of control; in assay [3] ([(+)SJ733] 7.8 nM, MEAN), 32.8 % of control; in assay [3] ([(+)SJ733] 15.6 nM, MEAN), 21.9 % of control; in assay [3] ([(+)SJ733] 31.3 nM, MEAN), 30.9 % of control; in assay [3] ([(+)SJ733] 62.5 nM, MEAN), 7.7 % of control. In addition, the “PfATP4-associated ATPase activity (% of control)” value in assay [3] ([(+)SJ733] 250 nM, MEAN) was 11.2 % of control; in assay [3] ([(+)SJ733] 500 nM, MEAN), -2.6 % of control; in assay [3] ([(+)SJ733] 1000 nM, MEAN), -8.2 % of control; in assay [3] ([(+)SJ733] 2000 nM, MEAN), 7.9 % of control; in assay [3] ([(+)SJ733] 4000 nM, MEAN), -17.1 % of control; in assay [3] ([(+)SJ733] 8000 nM, MEAN) it was -14.6 % of control.
